Several values for one entry are separate records, joined by “and”; a condition that tells them apart may be missing. Identical values can stand only once. Toxic doses and inconclusive results are not listed. The calls were made as follows: active = survival T/C of 150% or more; inactive = T/C below 125% in these data.
Test system: P388 leukemia ip, CD2F1 mice, survival T/C
Assay: NCI In Vivo Anticancer Drug Screen. Data for tumor model P388 Leukemia (intraperitoneal) in CD2F1 (CDF1) mice
Conditions: endpoint: median survival time, higher = longer survival
Outline: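 Mice carrying the transplanted tumor received test compound or vehicle. Survival was recorded in each group, and the value is the treated-group measurement divided by that of the vehicle-treated control group.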

[1] = dose: 60.0 mg/kg/injection, schedule: Q01DX005 (ip), vehicle: saline
[2] = dose: 120.0 mg/kg/injection, schedule: Q01DX005 (ip), vehicle: saline
[3] = dose: 240.0 mg/kg/injection, schedule: Q01DX005 (ip), vehicle: saline
[4] = dose: 50.0 mg/kg/injection, schedule: Q01DX009 (ip), vehicle: Klucel (hydroxypropylcellulose) (HPC)
[5] = dose: 100.0 mg/kg/injection, schedule: Q01DX009 (ip), vehicle: Klucel (hydroxypropylcellulose) (HPC)
[6] = dose: 200.0 mg/kg/injection, schedule: Q01DX009 (ip), vehicle: Klucel (hydroxypropylcellulose) (HPC)
[7] = dose: 50.0 mg/kg/injection, schedule: Q01DX005 (ip), vehicle: saline with Tween-80
[8] = dose: 100.0 mg/kg/injection, schedule: Q01DX005 (ip), vehicle: saline with Tween-80
[9] = dose: 200.0 mg/kg/injection, schedule: Q01DX005 (ip), vehicle: saline with Tween-80
[10] = dose: 100.0 mg/kg/injection, schedule: Q01DX005 (ip), vehicle: Klucel (hydroxypropylcellulose) (HPC)
[11] = dose: 200.0 mg/kg/injection, schedule: Q01DX005 (ip), vehicle: Klucel (hydroxypropylcellulose) (HPC)
[12] = dose: 12.5 mg/kg/injection, schedule: Q01DX005 (ip), vehicle: saline with Tween-80
[13] = dose: 25.0 mg/kg/injection, schedule: Q01DX005 (ip), vehicle: saline with Tween-80
[14] = dose: 12.5 mg/kg/injection, schedule: Q01DX009 (ip), vehicle: Klucel (hydroxypropylcellulose) (HPC)
[15] = dose: 25.0 mg/kg/injection, schedule: Q01DX009 (ip), vehicle: Klucel (hydroxypropylcellulose) (HPC)
[16] = dose: 12.5 mg/kg/injection, schedule: Q01DX009 (ip), vehicle: saline with Tween-80
[17] = dose: 25.0 mg/kg/injection, schedule: Q01DX009 (ip), vehicle: saline with Tween-80
[18] = dose: 50.0 mg/kg/injection, schedule: Q01DX009 (ip), vehicle: saline with Tween-80

Measured: T/C

COC(=O)/C=N/O
inactive: [1] 99 % of control | [2] 102 % of control | [3] 102 % of control

c1ccc(C2=C([P+](c3ccccc3)(c3ccccc3)c3ccccc3)CCO2)cc1
inactive: dose: 1.56 mg/kg/injection, schedule: Q01DX009 (ip), vehicle: saline 110 % of control and 117 % of control | dose: 2.6 mg/kg/injection, schedule: Q01DX009 (ip), vehicle: saline 114 % of control | dose: 3.13 mg/kg/injection, schedule: Q01DX009 (ip), vehicle: saline 119 % of control and 120 % of control | dose: 4.0 mg/kg/injection, schedule: Q01DX009 (ip), vehicle: saline 114 % of control | dose: 6.0 mg/kg/injection, schedule: Q01DX009 (ip), vehicle: saline 117 % of control | dose: 6.25 mg/kg/injection, schedule: Q01DX009 (ip), vehicle: saline 124 % of control | dose: 9.0 mg/kg/injection, schedule: Q01DX009 (ip), vehicle: saline 118 % of control | dose: 12.5 mg/kg/injection, schedule: Q01DX009 (ip), vehicle: saline 100 % of control and 109 % of control

CCC1C2C(C(C)c3c[nH]c4ccccc34)NC(=O)C23C(=O)/C=C\C(=O)C(O)/C(C)=C/C(C)C/C=C/C3C2OC12C (stereo not drawn)
inactive: dose: 0.38 mg/kg/injection, schedule: Q01DX005 (ip), vehicle: Klucel (hydroxypropylcellulose) (HPC) 105 % of control and 108 % of control | dose: 0.75 mg/kg/injection, schedule: Q01DX005 (ip), vehicle: Klucel (hydroxypropylcellulose) (HPC) 110 % of control and 118 % of control | dose: 1.5 mg/kg/injection, schedule: Q01DX005 (ip), vehicle: Klucel (hydroxypropylcellulose) (HPC) 106 % of control and 122 % of control

Cc1ccc(Cl)c([N+](=O)[O-])c1N
inactive: dose: 100.0 mg/kg/injection, schedule: Q04DX003 (ip), vehicle: saline with Tween-80 104 % of control | dose: 200.0 mg/kg/injection, schedule: Q04DX003 (ip), vehicle: saline with Tween-80 104 % of control

O=C(O)c1ccccc1NC(=S)Nc1ccccc1C(F)(F)F
inactive: [4] 100 % of control | [5] 96 % of control | [6] 105 % of control

CCCCCN(CCCCC)CC(=O)O[C@H]1C[C@H]2CC[C@@]1(C)C2(C)C
inactive: [7] 103 % of control | [8] 105 % of control | [9] 107 % of control

COc1cc(OC)cc(C2OC(N)=C(O)C2=O)c1 (stereo not drawn)
inactive: dose: 50.0 mg/kg/injection, schedule: Q01DX005 (ip), vehicle: Klucel (hydroxypropylcellulose) (HPC) 93 % of control | [10] 90 % of control | [11] 91 % of control

CCC1(N(C)C)C(=O)NC(=O)N(C)C1=O (stereo not drawn)
inactive: dose: 60.0 mg/kg/injection, schedule: Q01DX005 (ip), vehicle: Klucel (hydroxypropylcellulose) (HPC) 103 % of control | dose: 120.0 mg/kg/injection, schedule: Q01DX005 (ip), vehicle: Klucel (hydroxypropylcellulose) (HPC) 101 % of control | dose: 2400.0 mg/kg/injection, schedule: Q01DX005 (ip), vehicle: Klucel (hydroxypropylcellulose) (HPC) 104 % of control

CCOC(=O)C1=CNc2ccccc2N=C1N
inactive: dose: 6.25 mg/kg/injection, schedule: Q01DX005 (ip), vehicle: saline with Tween-80 112 % of control | [12] 115 % of control | [13] 113 % of control

CCOC1C(=O)C=COC1C(C)C (stereo not drawn)
inactive: [1] 108 % of control | [2] 104 % of control | [3] 110 % of control

CN(C)CCCC1(c2ccccc2)SC(C)(C)c2ccc(Cl)cc21 (stereo not drawn)
inactive: dose: 25.0 mg/kg/injection, schedule: Q01DX001 (ip), vehicle: Klucel (hydroxypropylcellulose) (HPC) 102 % of control | dose: 50.0 mg/kg/injection, schedule: Q01DX001 (ip), vehicle: Klucel (hydroxypropylcellulose) (HPC) 100 % of control

CC(=O)OC1C2C(OC3OC(=O)/C(=C\C=C4\CCCC(C)(C)C4)C32)O[C@H]1OC(C)=O (stereo partly drawn)
inactive: dose: 6.25 mg/kg/injection, schedule: Q01DX005 (ip), vehicle: Klucel (hydroxypropylcellulose) (HPC) 105 % of control | dose: 12.5 mg/kg/injection, schedule: Q01DX005 (ip), vehicle: Klucel (hydroxypropylcellulose) (HPC) 113 % of control | dose: 25.0 mg/kg/injection, schedule: Q01DX005 (ip), vehicle: Klucel (hydroxypropylcellulose) (HPC) 86 % of control

COc1cc(-c2nnc(C3CCC(=O)N3Cc3ccccc3)o2)cc(OC)c1OC (stereo not drawn)
inactive: dose: 60.0 mg/kg/injection, schedule: Q01DX005 (ip), vehicle: saline with Tween-80 103 % of control | dose: 120.0 mg/kg/injection, schedule: Q01DX005 (ip), vehicle: saline with Tween-80 100 % of control | dose: 240.0 mg/kg/injection, schedule: Q01DX005 (ip), vehicle: saline with Tween-80 97 % of control

[S-]c1n[n+](-c2ccccc2)no1
inactive: dose: 6.25 mg/kg/injection, schedule: Q01DX009 (ip), vehicle: distilled water + Tween-80 102 % of control | dose: 12.5 mg/kg/injection, schedule: Q01DX009 (ip), vehicle: distilled water + Tween-80 88 % of control

Cc1cc(N(CCCl)CCCl)ccc1NC(=O)c1ccccc1
inactive: dose: 50.0 mg/kg/injection, schedule: Q04DX003 (ip), vehicle: Klucel (hydroxypropylcellulose) (HPC) 109 % of control | dose: 100.0 mg/kg/injection, schedule: Q04DX003 (ip), vehicle: Klucel (hydroxypropylcellulose) (HPC) 118 % of control | dose: 200.0 mg/kg/injection, schedule: Q04DX003 (ip), vehicle: Klucel (hydroxypropylcellulose) (HPC) 116 % of control

ON(C(=S)Nc1ccc(Cl)cc1)c1ccccc1
inactive: [12] 104 % of control | [13] 100 % of control | [7] 95 % of control and 98 % of control | [8] 94 % of control | [9] 97 % of control

COc1ccc(CCNC(=O)c2c3nc4c(C(=O)NCCc5ccc(OC)cc5)ccc(C)c4oc-3c(C)c(=O)c2N)cc1
inactive: dose: 50.0 mg/kg/injection, schedule: Q04DX003 (ip), vehicle: DMSO 98 % of control | dose: 100.0 mg/kg/injection, schedule: Q04DX003 (ip), vehicle: DMSO 100 % of control | dose: 200.0 mg/kg/injection, schedule: Q04DX003 (ip), vehicle: DMSO 98 % of control

Ic1ccc(N=Cc2ccc(C=Nc3ccc(I)cc3)cc2)cc1
inactive: [14] 99 % of control | [15] 95 % of control | [4] 100 % of control | [5] 86 % of control | [6] 89 % of control

COc1ccc2nc(N)sc2c1
inactive: [14] 97 % of control | [16] 111 % of control | [15] 99 % of control | [17] 111 % of control | [4] 107 % of control | [18] 120 % of control | [5] 107 % of control

COC1/C=C/OC2(C)Oc3c(C)c(O)c4c(O)c(c(/C=N/NC5C6CC7CC(C6)CC5C7)c(O)c4c3C2=O)NC(=O)/C(C)=C/C=C/C(C)C(O)C(C)C(O)C(C)C(OC(C)=O)C1C (stereo not drawn)
inactive: [16] 106 % of control | [17] 109 % of control | [18] 113 % of control and 95 % of control

CCCCCCCCOC(=O)CP(=O)(O)O
inactive: [18] 100 % of control | dose: 100.0 mg/kg/injection, schedule: Q01DX009 (ip), vehicle: saline with Tween-80 96 % of control

O=C(O)C1CCCN1C(=O)OCc1ccccc1 (stereo not drawn)
inactive: [10] 87 % of control | [11] 89 % of control | dose: 400.0 mg/kg/injection, schedule: Q01DX005 (ip), vehicle: Klucel (hydroxypropylcellulose) (HPC) 91 % of control

S=C(S)n1nc(-c2ccccc2)c(N=Nc2cccc(Cl)c2)c1-c1ccccc1
inactive: dose: 100.0 mg/kg/injection, schedule: Q01DX001 (ip), vehicle: saline with Tween-80 91 % of control | dose: 200.0 mg/kg/injection, schedule: Q01DX001 (ip), vehicle: saline with Tween-80 91 % of control | dose: 400.0 mg/kg/injection, schedule: Q01DX001 (ip), vehicle: saline with Tween-80 113 % of control

COc1ccc(/C=C/c2ccnc3ccccc23)cc1
inactive: dose: 6.25 mg/kg/injection, schedule: Q01DX009 (ip), vehicle: saline with Tween-80 100 % of control | [16] 104 % of control | [17] 108 % of control

COc1cc(OC)c(C(=O)/C=C/c2ccncc2)cc1C(=O)O
inactive: dose: 50.0 mg/kg/injection, schedule: Q01DX009 (ip), vehicle: suspension in saline 114 % of control and 119 % of control | dose: 100.0 mg/kg/injection, schedule: Q01DX009 (ip), vehicle: suspension in saline 123 % of control and 124 % of control

Reference: PubChem BioAssay AID330 (DTP/NCI, 2004)
